Measured values from article PMC3302783, “Position of the Third Na^+ Site in the Aspartate Transporter GltPh and the Human Glutamate Transporter, EAAT1” (PLoS ONE, 2012).

Columns and labels:
EAAT1 T131A = biological target: T1, EAAT1 T131A (Homo sapiens, UniProt P43003, T131A); assay: Two-electrode voltage clamp of Xenopus laevis oocytes expressing EAAT1 T131A; assay type: cell-based
T1 construct: expressed in transfected cells; host or cells: Xenopus laevis oocytes injected with cRNA
From the text: (§1) All chemicals were obtained from Sigma unless otherwise stated. Stage V oocytes were harvested from Xenopus laevis as described previously.
(§2) NMDG^+ was used as a Na^+ substitute to maintain ionic strength of the buffers.
(§3) Substrate responses were fitted by least squares as a function of substrate concentration to I/Imax = [S]/([S]+K 0.5), where I is the current, Imax is the maximal current, K 0.5 is the concentration of substrate that generates half-maximal response, and [S] is the substrate concentration. Na^+ concentration responses were fit to the Hill equation I/Imax = [S]^n/([S]^n+(K 0.5)^n) where n is the Hill coefficient and all other terms are as described above. For ^3H-L-aspartate uptake by GltPh, initial rates were calculated from the linear portion of the curve and all data represent the mean ± s.e.m. of at least 3 experiments.

GltPh S93A [1] = biological target: T2, GltPh S93A (Pyrococcus horikoshii, UniProt O59010, S93A); assay: Binding free energy of Na^+ ions by thermodynamic integration (MD), GltPh S93A; details: GltPh S93A versus GltPh; from TI calculations
T2 construct: histidine tag (cleaved yes); made in house
Method: (§4) The simulation systems are prepared using the software VMD [28]. The crystal structure of the GltPh trimer is embedded in a 1-palmitoyl-2-oleoyl-phosphatidylethanolamine (POPE) phospholipid bilayer and solvated in a box of water molecules with physiological concentration of NaCl. The final system consists of the trimer, 239 lipid molecules, 15688 water molecules and 35 Na^+ and 35 Cl^− ions. GltPh has a net charge of +6e, so to keep the system neutral 6 Cl^− ions are added in the apo system (more Cl^− ions are added when the bound Na^+ ions are included to preserve neutrality). […]
(§5) The binding free energies of Na^+ ions are calculated using the expression, ΔGb = ΔGint+ΔGtr , where the first term gives the free energy difference for the interactions of the ion in the binding site and bulk (i.e. translocation energy) and the second term measures the free energy loss due to reduction in translational entropy upon binding. […] The interaction energy is calculated using both the free energy perturbation (FEP) and the thermodynamic integration (TI) methods, [35]. […] Otherwise the binding free energy of the ion is determined from the average of the forward and backward calculations. […]

wild type GltPh = biological target: T3, wild type GltPh (Pyrococcus horikoshii, UniProt O59010); assay: ^3H-L-aspartate uptake in proteoliposomes, wild type GltPh; assay type: biochemical
T3 construct: histidine tag (cleaved yes); made in house
T3 sequence (O59010 1-425): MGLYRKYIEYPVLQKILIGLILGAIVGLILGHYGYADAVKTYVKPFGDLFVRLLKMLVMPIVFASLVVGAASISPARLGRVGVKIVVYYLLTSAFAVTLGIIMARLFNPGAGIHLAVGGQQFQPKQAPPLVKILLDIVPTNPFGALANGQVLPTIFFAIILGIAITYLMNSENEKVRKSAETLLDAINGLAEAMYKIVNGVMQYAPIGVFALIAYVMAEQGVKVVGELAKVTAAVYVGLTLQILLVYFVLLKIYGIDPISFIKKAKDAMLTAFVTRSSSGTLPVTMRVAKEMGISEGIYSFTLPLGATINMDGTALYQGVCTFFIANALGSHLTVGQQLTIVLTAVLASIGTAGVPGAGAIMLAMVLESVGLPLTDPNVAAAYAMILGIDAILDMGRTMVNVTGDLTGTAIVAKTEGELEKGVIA
Method: (§6) Pure protein was reconstituted into liposomes using a method modified from Gaillard et al., 1996 [37]. Escherichia coli polar lipids and 1-palmitoyl-2-oleoyl-sn-glycero-3-phosphocholine (Avanti Polar Lipids), at a ratio of 3∶1, were mixed, dried under nitrogen, and resuspended in internal buffer (100 mM KCl, 20 mM HEPES pH 7.5 or the appropriate internal buffer as indicated below). The lipid mixture was briefly sonicated using a cylindrical sonicator (Labatory Supplies Co.) and the lipid suspension was frozen in liquid nitrogen and thawed at 45°C several times. Liposomes were formed by extrusion through 400 nm polycarbonate membranes (Avanti Polar Lipids) and were treated with Triton X-100 at a 0.5∶1 (w/w) detergent to lipid ratio prior to the addition of protein at 0.25 µg protein/mg lipid. The protein/lipid mixture was left at room temperature for 30 minutes before detergent was removed using SM2 Biobeads (Biorad). The protein/lipid mixture was incubated, with gentle agitation, with three consecutive batches of the Biobeads (80 mg/ml). Proteoliposomes were concentrated by centrifugation at 150,000 g for 30 minutes in a Beckman Optima TLX centrifuge, resuspended at 100 mg lipid/mL and either used immediately or flash frozen in liquid nitrogen and stored at −80°C.
(§7) ^3H-L-aspartate transport by wild type GltPh and mutant GltPh transporters was assayed using a protocol modified from Gaillard et al., 1996 [37]. Proteoliposomes were loaded with internal buffer (100 mM KCl, 20 mM HEPES pH 7.5) by several freeze/thaw cycles followed by extrusion as described above. The uptake reaction was initiated by diluting the proteoliposomes (100 mg lipid/mL) 133 fold into reaction buffer pre-warmed to 30°C. The reaction buffer contained: 100 mM NaCl, 20 mM HEPES pH 7.5, 1 µM valinomycin and the indicated concentrations of ^3H-L-aspartate. […] The filters were washed once with 2 mL of ice cold quench buffer and assayed for radioactivity using a Trilux beta counter (Perkin Elmer). The Na^+ dependence of ^3H-L-aspartate transport was measured by varying extraliposomal Na^+ from 0.1 to 300 mM Na^+. […] Background levels of uptake were measured by diluting proteoliposomes into internal buffer (100 mM KCl, 20 mM HEPES pH 7.5) containing 1 µM valinomycin and the indicated concentrations of ^3H-L-aspartate.
as §3, with “Na^+ concentration responses were fit to the Hill equation I/Imax = [S]^n/([S]^n+(K 0.5)^n) where n is the Hill coefficient and all other terms are as described above.” left out

GltPh T92A [2] = biological target: T4, GltPh T92A (Pyrococcus horikoshii, UniProt O59010, T92A); assay: ^3H-L-aspartate uptake in proteoliposomes, GltPh T92A; assay type: biochemical
T4 construct: histidine tag (cleaved yes); made in house
Method: as §6, §7
as §3, with “Na^+ concentration responses were fit to the Hill equation I/Imax = [S]^n/([S]^n+(K 0.5)^n) where n is the Hill coefficient and all other terms are as described above.” left out

GltPh T92A [3] = biological target: T4, GltPh T92A; assay: Binding free energy of Na^+ ions by thermodynamic integration (MD), GltPh T92A; details: GltPh T92A versus GltPh; from TI calculations
Method: as §4, §5

EAAT1 T130A = biological target: T5, EAAT1 T130A (Homo sapiens, UniProt P43003, T130A); assay: Two-electrode voltage clamp of Xenopus laevis oocytes expressing EAAT1 T130A; assay type: cell-based
T5 construct: expressed in transfected cells; host or cells: Xenopus laevis oocytes injected with cRNA
From the text: as §1, §2, §3

EAAT1 = biological target: T6, EAAT1 (Homo sapiens, UniProt P43003); assay: Two-electrode voltage clamp of Xenopus laevis oocytes expressing wild type EAAT1; assay type: cell-based
T6 construct: expressed in transfected cells; host or cells: Xenopus laevis oocytes injected with cRNA
From the text: as §1, §2, §3

GltPh S93A [4] = biological target: T2, GltPh S93A; assay: ^3H-L-aspartate uptake in proteoliposomes, GltPh S93A; assay type: biochemical
Method: as §6, §7
as §3, with “Na^+ concentration responses were fit to the Hill equation I/Imax = [S]^n/([S]^n+(K 0.5)^n) where n is the Hill coefficient and all other terms are as described above.” left out

GltPh = test system: GltPh; design: method as in PMID 17230192, PMID 19380583; details: initial functional studies of GltPh; ref [9], [11]; cited from earlier work
GltPh D312A = biological target: T7, GltPh D312A (Pyrococcus horikoshii, UniProt O59010, D312A); assay: ^3H-L-aspartate uptake in proteoliposomes, GltPh D312A; assay type: biochemical; details: 100 nM ^3H-L-aspartate, 100 mM NaCl
T7 construct: histidine tag (cleaved yes); made in house
Method: (§8) Pure protein was reconstituted into liposomes using a method modified from Gaillard et al., 1996 [37]. Escherichia coli polar lipids and 1-palmitoyl-2-oleoyl-sn-glycero-3-phosphocholine (Avanti Polar Lipids), at a ratio of 3∶1, were mixed, dried under nitrogen, and resuspended in internal buffer (100 mM KCl, 20 mM HEPES pH 7.5 or the appropriate internal buffer as indicated below). The lipid mixture was briefly sonicated using a cylindrical sonicator (Labatory Supplies Co.) and the lipid suspension was frozen in liquid nitrogen and thawed at 45°C several times. […]
(§9) ^3H-L-aspartate transport by wild type GltPh and mutant GltPh transporters was assayed using a protocol modified from Gaillard et al., 1996 [37]. […] The filters were washed once with 2 mL of ice cold quench buffer and assayed for radioactivity using a Trilux beta counter (Perkin Elmer). The Na^+ dependence of ^3H-L-aspartate transport was measured by varying extraliposomal Na^+ from 0.1 to 300 mM Na^+. […] Background levels of uptake were measured by diluting proteoliposomes into internal buffer (100 mM KCl, 20 mM HEPES pH 7.5) containing 1 µM valinomycin and the indicated concentrations of ^3H-L-aspartate. […]

GltPh N310A = biological target: T8, GltPh N310A (Pyrococcus horikoshii, UniProt O59010, N310A); assay: ^3H-L-aspartate uptake in proteoliposomes, GltPh N310A; assay type: biochemical; details: 100 nM ^3H-L-aspartate, 100 mM NaCl
T8 construct: histidine tag (cleaved yes); made in house
Method: as §8, §9

[5] = 100 nM ^3H-L-aspartate, Na^+ 0.1 to 300 mM
[6] = 100 µM L-glutamate, oocytes clamped at −60 mV
[7] = 100 mM Na^+, saturating substrate concentrations
[8] = ^3H-L-aspartate concentration-dependent transport, 100 mM NaCl

T1 sequence (P43003 whole entry T131A): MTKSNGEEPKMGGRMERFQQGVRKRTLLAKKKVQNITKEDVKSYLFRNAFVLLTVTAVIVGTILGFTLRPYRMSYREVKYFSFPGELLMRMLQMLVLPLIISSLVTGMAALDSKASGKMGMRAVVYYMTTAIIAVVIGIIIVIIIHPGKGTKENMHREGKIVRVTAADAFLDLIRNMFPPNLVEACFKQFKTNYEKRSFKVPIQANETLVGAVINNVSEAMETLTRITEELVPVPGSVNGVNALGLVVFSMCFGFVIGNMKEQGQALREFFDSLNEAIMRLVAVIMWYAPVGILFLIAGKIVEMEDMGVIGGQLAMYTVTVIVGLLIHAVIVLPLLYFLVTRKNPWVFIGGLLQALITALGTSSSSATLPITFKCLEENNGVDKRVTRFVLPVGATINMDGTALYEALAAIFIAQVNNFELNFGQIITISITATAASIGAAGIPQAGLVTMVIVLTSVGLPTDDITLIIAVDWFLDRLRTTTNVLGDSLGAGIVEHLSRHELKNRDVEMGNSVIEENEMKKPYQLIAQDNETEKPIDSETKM
T5 sequence (P43003 whole entry T130A): as the sequence (P43003 whole entry T131A) above, with T130A, A131T counted along it
T6 sequence (P43003 whole entry): as the sequence (P43003 whole entry T131A) above, with A131T counted along it
T2 sequence (O59010 whole entry S93A): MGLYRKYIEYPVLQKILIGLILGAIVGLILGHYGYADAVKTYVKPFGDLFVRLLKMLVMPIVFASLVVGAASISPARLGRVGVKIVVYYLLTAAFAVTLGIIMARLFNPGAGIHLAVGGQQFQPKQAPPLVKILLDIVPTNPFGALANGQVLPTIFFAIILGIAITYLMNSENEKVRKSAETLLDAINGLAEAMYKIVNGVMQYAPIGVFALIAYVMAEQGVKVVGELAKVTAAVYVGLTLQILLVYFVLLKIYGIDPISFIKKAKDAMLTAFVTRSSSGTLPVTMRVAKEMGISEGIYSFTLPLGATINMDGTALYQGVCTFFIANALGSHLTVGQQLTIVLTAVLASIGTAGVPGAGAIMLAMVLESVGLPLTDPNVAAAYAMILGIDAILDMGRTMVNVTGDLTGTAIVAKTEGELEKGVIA
T4 sequence (O59010 whole entry T92A): as the sequence (O59010 whole entry S93A) above, with T92A, A93S counted along it
T7 sequence (O59010 whole entry D312A): as the sequence (O59010 whole entry S93A) above, with A93S, D312A counted along it
T8 sequence (O59010 whole entry N310A): as the sequence (O59010 whole entry S93A) above, with A93S, N310A counted along it

Q: With `[Na+]` [Na^+] as the compound, how does the “Na^+ dependence of L-glutamate transport: saturation at highest Na^+ concentration” value (EAAT1 T131A; 1 mM L-glutamate, 150 mM Na^+) read?
A: not saturating

Q: What about the “reduction of the binding free energy of Na3 by the mutation” value (GltPh S93A [1]) of the same compound?
A: 5.9 kcal/mol

Q: And the “Hill coefficient of Na^+ dependence of aspartate transport” value (wild type GltPh; 100 nM ^3H-L-aspartate)?
A: 2.3±0.5

Q: What about the “K 0.5 for Na^+ dependence of aspartate transport” value (wild type GltPh; [5]) of the same compound?
A: 3.9 ± 0.4 mM

Q: And the “Hill coefficient of Na^+ dependence of aspartate transport” value (GltPh T92A [2]; 100 nM ^3H-L-aspartate)?
A: 2.1±0.2

Q: And the “K 0.5 for Na^+ dependence of aspartate transport” value (GltPh T92A [2]; [5])?
A: 19 ± 1 mM

Q: What about the “reduction of the binding free energy of Na3 by the mutation” value (GltPh T92A [3]) of the same compound?
A: 7.5 kcal/mol

Q: What about the “Na^+ dependence of L-glutamate transport: saturation at highest Na^+ concentration” value (EAAT1 T130A; 1 mM L-glutamate, 150 mM Na^+) of the same compound?
A: not saturating

Q: And the “Hill coefficient of Na^+ dependence of L-glutamate transport” value (EAAT1; 300 µM L-glutamate)?
A: 2.8±0.4

Q: And the “K 0.5 for Na^+ dependence of L-glutamate transport” value (EAAT1; 300 µM L-glutamate, Na^+ 1 to 150 mM)?
A: 28 ± 4 mM

Q: What about the “Hill coefficient of Na^+ dependence of aspartate transport” value (GltPh S93A [4]; 500 nM ^3H-L-aspartate) of the same compound?
A: 1.9±0.2

Q: And the “K 0.5 for Na^+ dependence of aspartate transport” value (GltPh S93A [4]; 500 nM ^3H-L-aspartate, Na^+ 0.1 to 300 mM)?
A: 44 ± 2 mM

Q: What about the “Hill coefficient (Na^+ ions co-transported with substrate)” value (GltPh) of the same compound?
A: > 2

Q: Which “current elicited by L-glutamate” value (EAAT1 T131A; [6]) does the source give for `N[C@@H](CCC(=O)O)C(=O)O` [L-glutamate] here?
A: 25±2 nA

Q: What about the “K 0.5 for L-glutamate transport” value (EAAT1 T131A; oocytes clamped at −60 mV) of the same compound?
A: 124 ± 11 µM

Q: And the “current elicited by L-glutamate” value (EAAT1 T130A; [6])?
A: 21±2 nA

Q: What about the “K 0.5 for L-glutamate transport” value (EAAT1 T130A; oocytes clamped at −60 mV) of the same compound?
A: 87 ± 3 µM

Q: What about the “current elicited by L-glutamate” value (EAAT1; [6]) of the same compound?
A: 395±20 nA

Q: And the “K 0.5 for L-glutamate transport” value (EAAT1; oocytes clamped at −60 mV)?
A: 15 ± 1 µM

Q: With `N[C@@H](CC(=O)O)C(=O)O` [aspartate] as the compound, how does the “^3H-L-aspartate uptake versus background” value (GltPh D312A) read?
A: did not exhibit ^3H-L-aspartate uptake over background levels

Q: What about the “maximal velocity of ^3H-L-aspartate transport” value (“maximal velocity” for short) (wild type GltPh; [7]) of the same compound?
A: 7.5±0.5 nmol/mg protein/min

Q: And the “K 0.5 for aspartate transport” value (wild type GltPh; [8])?
A: 100 ± 10 nM

Q: What about the “maximal velocity” value (GltPh T92A [2]; [7]) of the same compound?
A: 42±1 nmol/mg protein/min

Q: And the “K 0.5 for aspartate transport” value (GltPh T92A [2]; [8])?
A: 61 ± 10 nM

Q: And the “^3H-L-aspartate uptake versus background” value (GltPh N310A)?
A: did not exhibit ^3H-L-aspartate uptake over background levels

Q: And the “maximal velocity” value (GltPh S93A [4]; [7])?
A: 58±3 nmol/mg protein/min

Q: And the “K 0.5 for aspartate transport” value (GltPh S93A [4]; [8])?
A: 370 ± 60 nM
